From US4820834A, “Benzodiazepine analogs” (priority 1987, dated 1989)
Read-outs that look alike come from different tables or passages of the source.

Experiments:
CCK receptor (pancreas) = target: T1, CCK receptor (pancreas) (Rattus norvegicus, UniProt P30551); assay: CCK Receptor Binding (Pancreas): inhibition of ^125 I-CCK-33 binding; parameters: species or system Male Sprague-Dawley rats; details: rat pancreas membranes, ^125 I-CCK-33, 37° C., 30 minutes
T1 construct: The whole pancreas was dissected free of fat tissue and was homogenized; from tissue; host or cells: rat pancreas membranes (Sprague-Dawley)
T1 sequence (P30551 1-444): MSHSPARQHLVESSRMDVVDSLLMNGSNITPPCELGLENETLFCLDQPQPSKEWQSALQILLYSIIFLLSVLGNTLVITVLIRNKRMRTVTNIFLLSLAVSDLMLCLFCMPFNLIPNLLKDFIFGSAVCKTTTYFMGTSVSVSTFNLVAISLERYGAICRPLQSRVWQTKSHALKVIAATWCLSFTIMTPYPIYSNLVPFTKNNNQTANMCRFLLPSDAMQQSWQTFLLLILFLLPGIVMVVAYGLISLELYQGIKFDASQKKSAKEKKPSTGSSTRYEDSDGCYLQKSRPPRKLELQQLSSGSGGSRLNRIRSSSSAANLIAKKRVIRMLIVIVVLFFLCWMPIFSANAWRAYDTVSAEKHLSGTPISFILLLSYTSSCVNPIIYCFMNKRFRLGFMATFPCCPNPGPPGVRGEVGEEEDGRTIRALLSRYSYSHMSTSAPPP
Method: 1. CCK Receptor Binding (Pancreas)
CCK-33 was radiolabeled with ^125 I-Bolton Hunter reagent (2000 Ci/mmole) as described by Sankara et al. (J. Biol. Chem. 254: 9349-9351, 1979). Receptor binding was performed according to Innis and Snyder (Proc. Natl. Acad. Sci. 77: 6917-6921, 1980) with the minor modification of adding the additional protease inhibitors, phenylmethane sulfonyl fluoride and o-phenanthroline.
Male Sprague-Dawley rats (200-350 g) were sacrificed by decapitation. The whole pancreas was dissected free of fat tissue and was homogenized in 20 volumes of ice-cold 50 mM, Tris HCl (pH 7.7 at 25° C.) with a Brinkmann Polytron PT 10. The homogenates were centrifuged at 48,000 g for 10 min. Pellets were resuspended in Tris Buffer, centrifuged as above and resuspended in 200 volumes of binding assay buffer (50 mM Tris HCl, pH 7.7 at 25° C., 5 mM dithiothrietol, 0.1 mM bacitracin, 1.2 mM phenylmethane sulfonyl fluoride and 0.5 mM o-phenanthroline). […] All assays were run in duplicate or triplicate. The reaction mixtures were incubated at 37° C. for 30 minutes and centrifuged in a Beckman Microfuge (4 minutes) immediately after adding 1 ml of ice-cold incubation buffer. The supernatant was aspirated and discarded, pellets were counted with a Beckman gamma 5000. For Scatchard analysis (Ann. N.Y. Acad. Sci. 51: 660, 1949), ^125 I-CCK-33 was progressively diluted with increasing concentrations of CCK-33.

[1] = target: T2, Gastrin receptor (gastric glands) (Cavia porcellus, UniProt H0VZC5); assay: Gastrin Receptor Binding in Guinea Pig Gastric Glands; parameters: species or system guinea pig (male Hartley); details: 25° C., 30 minutes
T2 construct: The washed guinea pig gastric glands prepared as above were resuspended; from tissue; host or cells: guinea pig gastric mucosal glands (male Hartley)
T2 sequence (H0VZC5 1-426): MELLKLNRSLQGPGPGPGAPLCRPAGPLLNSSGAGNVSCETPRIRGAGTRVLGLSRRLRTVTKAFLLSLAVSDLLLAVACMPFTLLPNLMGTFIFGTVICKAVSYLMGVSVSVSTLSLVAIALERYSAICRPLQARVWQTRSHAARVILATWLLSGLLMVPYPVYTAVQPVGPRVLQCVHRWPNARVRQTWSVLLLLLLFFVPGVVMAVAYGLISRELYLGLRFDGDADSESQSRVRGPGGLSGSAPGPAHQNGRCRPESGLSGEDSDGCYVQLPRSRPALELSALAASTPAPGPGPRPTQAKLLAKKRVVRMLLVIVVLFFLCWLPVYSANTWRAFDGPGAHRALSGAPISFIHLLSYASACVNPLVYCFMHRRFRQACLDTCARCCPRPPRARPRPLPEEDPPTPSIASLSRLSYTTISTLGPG

[2] = target: T3, CCK receptor (brain, cerebral cortex) (Cavia porcellus, UniProt H0VZC5); assay: biochemical; format: binding, Male Hartley guinea pigs; details: guinea pig cerebral cortex, ^125 I-CCK-33, 25° C., 2 hours
T3 construct: Cerebral cortex was dissected and used as a receptor source; from tissue; host or cells: guinea pig cerebral cortex membranes (male Hartley)
T3 sequence (H0VZC5 1-426): T2 sequence (H0VZC5 1-426)
Summary of the method: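 Guinea pig cerebral cortex homogenate as receptor source, with radiolabeled CCK-33 in HEPES buffer containing MgCl2, bacitracin, EGTA and 0.4% BSA. Incubation 2 h at 25°C; bound ligand pelleted by centrifugation and gamma-counted.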

[3] = read-out: IC50 ^125 I-CCK Pancreas
[4] = ^125 I-gastrin, read-out: IC50 ^125 I-Gastrin Gastric Glands
[5] = read-out: IC50 ^125 I-CCK Brain
[6] = IC50 ^125 I-Gastrin Gastric Glands

Compound	IC50 (CCK receptor (pancreas); [3])	IC50 [1, 4]	IC50 [2, 5]	IC50 (CCK receptor (pancreas); IC50 ^125 I-CCK Pancreas)	IC50 [1, 6]	IC50 ([2]; IC50 ^125 I-CCK Brain)
1-(2-Cyanoethyl)-1,3-dihydro-5-(2-fluorophenyl)-3(R)-(3'-indolyl)methyl-2H- 1,4-benzodiazepin-2-one (A, 85%) and 1-(2-cyanoethyl)-1,3-dihydro-5-(2-fluorophenyl)-3(R)-[1'-(2-cyanoethyl)-3'-indolyl]-methyl-2H-1,4-benzodiazpin-2-one (B, 15%) [Example 102]	0.7 µM	12.8 µM	30 µM			
CC(C)(C)OC(=O)N[C@@H](Cc1c[nH]c2ccccc12)C(=O)NC1N=C(c2ccccc2)c2ccccc2NC1=O (mixture of isomers) [Example 77, 3(RS)-(Boc-L-tryptophanyl)amino-1,3-dihydro-5-phenyl-2H-1,4-benzodiazepin-2-one]				6 µM	250 µM	20 µM
CC(C)(C)OC(=O)N[C@H](Cc1c[nH]c2ccccc12)C(=O)NC1N=C(c2ccccc2)c2ccccc2NC1=O (mixture of isomers) [Example 96, 3(RS)-(BOC-D-tryptophanyl)amino-1,3-dihydro-5-phenyl-2H-1,4-benzodiazepin-2-one]				17 µM	500 µM	> 100 µM
CN1C(=O)C(C(O)c2c[nH]c3ccccc23)N=C(c2ccccc2)c2ccccc21 (racemic) [Example 47, 1,3-Dihydro-3(RS)-[1-hydroxy-1-(3'-indolyl)]methyl-1-methyl-5-phenyl-2H-1,4-benzodiazepin-2-one]		24 µM	40 µM	24 µM		
CN1C(=O)C(C(=O)c2ccsc2)N=C(c2ccccc2)c2ccccc21 (racemic) [Example 48, 1,3-Dihydro-1-methyl-5-phenyl-3-(RS)-(3-thienoyl)-2H-1,4-benzodiazepin-2-one]		8.4 µM	33 µM	54 µM		
CN1C(=O)C(C(O)c2ccsc2)N=C(c2ccccc2)c2ccccc21 (racemic) [Example 49, 1,3-Dihydro-3-(RS)-[1-hydroxy-1-(3-thienyl)]methyl-1-methyl-5-phenyl-2H-1,4-benzodiazepin-2-one]		34 µM	100 µM	> 100 µM		
CN1C(=O)[C@@H](Cc2cn(C)c3ccccc23)N(C(=O)c2ccc(Cl)cc2)C(c2ccccc2F)c2ccccc21 (stereo partly drawn) [Example 27a, 4-(p-Chlorobenzoyl)-5-(2-fluorophenyl)-3(R)-[3'-(1'-methylindolyl)-methyl]-1-methyl-1,3,4,5-tetrahydro-2H-1,4-benzodiazepin-2-one]	> 100 µM		> 100 µM			
CC(=O)N1C(c2ccccc2F)c2ccccc2N(C)C(=O)[C@H]1Cc1cn(C)c2ccccc12 (stereo partly drawn) [Example 27b, 4-acetyl-5-(2-fluorophenyl)-3(R)-[3'-(1'-methylindolyl)-methyl]-1-methyl-1,3,4,5-tetrahydro-2H-1,4-benzodiazepin-2-one]	100 µM		> 100 µM			
O=C1Nc2ccc(Cl)cc2C(c2ccccc2Cl)=N[C@@H]1Cc1c[nH]c2ccccc12 [Example 28, 7-Chloro-5-(2-chlorophenyl)-1,3-dihydro-3(R)-(3'-indolyl)methyl-2H-1,4-benzodiazepin-2-one]				5 µM		> 100 µM
O=C1[C@@H](Cc2c[nH]c3ccccc23)N=C(c2ccccc2)c2cc(Cl)ccc2N1Cc1ccccc1 [Example 30, 1-Benzyl-7-chloro-1,3-dihydro-3(R)-(3'-indolyl) methyl-5-phenyl-2H-1,4-benzodiazepin-2-one]				> 100 µM		> 100 µM
CN1C(=O)[C@@H](Cc2c[nH]c3ccccc23)N=C(c2ccccc2)c2cc(Cl)ccc21 [Example 31, 7-Chloro-1,3-Dihydro-3(R)-(3'-indolyl)methyl-1-methyl-5-phenyl-2H-1,4-benzodiazepin-2-one]				1.4 µM		> 100 µM
O=C1[C@H](Cc2c[nH]c3ccccc23)N=C(c2ccccc2)c2cc(Cl)ccc2N1Cc1ccccc1 [Example 33, 1-Benzyl-7-chloro-1,3-dihydro-3(S)-(3'-indolyl) methyl-5-phenyl-2H-1,4-benzodiazepin-2-one]				> 100 µM		> 100 µM
S=C1Nc2ccc(Cl)cc2C(c2ccccc2)=N[C@@H]1Cc1c[nH]c2ccccc12 [Example 34, 7-Chloro-1,3-dihydro-3(R)-(3'-indolyl)methyl-5-phenyl-2H-1,4-benzodiazepin-2-thione]				4.5 µM		> 100 µM
CCOC(=O)CN1C(=O)[C@@H](Cc2c[nH]c3ccccc23)N=C(c2ccccc2F)c2ccccc21 [Example 42, 1,3-Dihydro-1-(ethoxycarbonylmethyl)-5-(2-fluorophenyl)-3(R)-(3'-indolyl)methyl-2H-1,4-benzodiazepin-2-one]				8.3 µM		> 100 µM
CN1C(=O)[C@@H](Cc2cn(Cc3ccccc3)c3ccccc23)N=C(c2ccccc2)c2cc(Cl)ccc21 [Example 46, 7-Chloro-1,3-dihydro-3(R)-[3'(1'-benzylindolyl)methyl]1-methyl-5-phenyl-2H-1,4-benzodiazepin-2-one]				> 100 µM		> 100 µM
CCCCCc1ccc(C(=O)N[C@H]2N=C(c3ccccc3)c3ccccc3N(C)C2=O)cc1 [Example 201]	0.25 µM	> 100 µM				
CCCCCc1ccc(C(=O)N[C@@H]2N=C(c3ccccc3)c3ccccc3N(C)C2=O)cc1 [Example 206, (R)-N-(2,3-Dihydro-1-methyl-2-oxo-5-phenyl-1H-1,4-benzodiazepin-3-yl)-4-pentylbenzamide]	12 µM	> 100 µM				
CN1CC(CC2N=C(c3ccccc3)c3ccccc3N(C)C2=O)c2ccccc21 (stereo not drawn) [Example 211, 3-((2,3-Dihydro-1-methyl-1H-indol-3-yl)methyl)-1,3-dihydro-1-methyl-5-phenyl-2H-1,4-benzodiazepin-2-one]				13 µM		93 µM
CN1C(=O)C(NC(=O)c2ccc(C(F)(F)F)cc2)N=C(c2ccccc2F)c2ccccc21 (stereo not drawn) [Example 218, N-(5-(2-Fluorophenyl)-2,3-dihydro-1-methyl-2-oxo-1H-1,4-benzodiazepin-3-yl)-4-(trifluoromethyl)-benzamide]		1.8 µM		0.0026 µM		
Cc1cccc(NC(=O)NC2N=C(c3ccccc3)c3ccccc3N(C)C2=O)c1 (stereo not drawn) [Example 263, N-(2,3-Dihydro-1-methyl-2-oxo-5-phenyl-1H-1,4-benzodiazepin-3-yl)-N'-(3-methylphenyl)-urea]	0.0081 µM	0.0031 µM				
Cc1cccc(NC(=O)N[C@@H]2N=C(c3ccccc3)c3ccccc3N(C)C2=O)c1 [Example 281, (R)-N-(2,3-Dihydro-1-methyl-2-oxo-5-phenyl-1H-1,4-benzodiazepin-3-yl)-N'-(3-methylphenyl)-urea]		0.00066 µM		1.4 µM		
